Drawing on ChEMBL document CHEMBL1909046, “DrugMatrix in vitro pharmacology data”, this text covers IC50 and Ki for eleven compounds.

In one data set the target is Cytochrome P450 3A4 (Homo sapiens, UniProt P08684). The conditions noted are these: bti-tn-5b1-4. Further: in other assays of this panel Not Active means under 50% inhibition at 10 µM.
The target in data set [1] is Platelet-activating factor receptor (Homo sapiens, UniProt P25105). It counts as tissue-based. Further: in other assays of this panel Not Active means under 50% inhibition at 10 µM.
Platelet-activating factor receptor, sequence (P25105 whole entry): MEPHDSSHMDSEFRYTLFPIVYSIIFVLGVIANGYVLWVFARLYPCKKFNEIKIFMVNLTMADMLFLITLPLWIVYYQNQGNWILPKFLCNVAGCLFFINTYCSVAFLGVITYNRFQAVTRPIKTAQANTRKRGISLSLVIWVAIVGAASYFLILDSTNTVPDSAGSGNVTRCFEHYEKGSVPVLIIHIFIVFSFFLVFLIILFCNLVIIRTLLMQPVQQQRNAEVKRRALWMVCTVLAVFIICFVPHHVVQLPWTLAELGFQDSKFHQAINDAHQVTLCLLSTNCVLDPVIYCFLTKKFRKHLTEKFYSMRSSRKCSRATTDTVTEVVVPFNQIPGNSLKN
The nature of data set [2]: DRUGMATRIX: Calcium Channel Type L, Phenylalkylamine radioligand binding (ligand: [3H] (-)-Desmethoxyverapamil (D-888)). It counts as cell membranes, Rattus norvegicus, Wistar, Brain, Membrane. The conditions noted are these: Not Active = under 50% inhibition at 10 µM.
For a further data set, the target named is T1, Androgen receptor (Rattus norvegicus, UniProt P15207). Further: in other assays of this panel Not Active means under 50% inhibition at 10 µM.
T1 sequence (P15207 whole entry): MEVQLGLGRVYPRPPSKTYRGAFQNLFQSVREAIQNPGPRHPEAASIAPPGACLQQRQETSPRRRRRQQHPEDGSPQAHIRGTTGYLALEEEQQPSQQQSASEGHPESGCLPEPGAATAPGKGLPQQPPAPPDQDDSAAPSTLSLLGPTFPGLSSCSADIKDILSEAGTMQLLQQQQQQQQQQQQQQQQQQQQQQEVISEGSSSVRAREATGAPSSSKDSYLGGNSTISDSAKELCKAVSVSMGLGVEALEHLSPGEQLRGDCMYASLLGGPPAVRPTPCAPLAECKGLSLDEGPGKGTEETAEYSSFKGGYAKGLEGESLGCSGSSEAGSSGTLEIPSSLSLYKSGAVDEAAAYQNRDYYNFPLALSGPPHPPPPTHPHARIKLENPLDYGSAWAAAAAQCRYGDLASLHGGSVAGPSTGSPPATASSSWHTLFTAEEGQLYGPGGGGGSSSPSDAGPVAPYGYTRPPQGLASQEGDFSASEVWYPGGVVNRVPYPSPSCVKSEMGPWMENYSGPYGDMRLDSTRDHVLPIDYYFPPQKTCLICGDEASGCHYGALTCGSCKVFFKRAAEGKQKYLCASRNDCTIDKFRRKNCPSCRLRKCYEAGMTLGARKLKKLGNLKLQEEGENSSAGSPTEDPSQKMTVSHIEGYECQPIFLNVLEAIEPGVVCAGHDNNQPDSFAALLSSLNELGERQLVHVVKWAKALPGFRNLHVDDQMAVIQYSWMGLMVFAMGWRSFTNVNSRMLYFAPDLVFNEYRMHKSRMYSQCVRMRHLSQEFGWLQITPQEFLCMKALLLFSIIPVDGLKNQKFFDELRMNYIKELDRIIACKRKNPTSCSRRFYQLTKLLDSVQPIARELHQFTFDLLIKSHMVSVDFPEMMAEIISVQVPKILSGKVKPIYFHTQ

The target of data set [3] is T2, 5-hydroxytryptamine receptor 1A (Rattus norvegicus, UniProt P19327). Further: in other assays of this panel Not Active means under 50% inhibition at 10 µM.
T2 sequence (P19327 whole entry): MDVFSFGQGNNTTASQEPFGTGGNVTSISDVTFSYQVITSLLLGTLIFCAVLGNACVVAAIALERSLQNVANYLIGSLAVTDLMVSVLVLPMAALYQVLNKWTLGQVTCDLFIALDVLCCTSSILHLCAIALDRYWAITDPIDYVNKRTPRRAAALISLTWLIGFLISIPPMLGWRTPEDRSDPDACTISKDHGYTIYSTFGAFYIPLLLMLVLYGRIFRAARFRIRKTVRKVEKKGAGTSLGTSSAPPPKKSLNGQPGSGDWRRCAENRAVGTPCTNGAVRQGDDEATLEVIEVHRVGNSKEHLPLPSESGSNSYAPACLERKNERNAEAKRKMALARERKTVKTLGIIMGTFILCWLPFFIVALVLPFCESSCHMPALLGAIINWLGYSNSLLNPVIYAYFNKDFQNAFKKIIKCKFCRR
The class given is cell membranes, CHO-K1, Membrane. The conditions noted are these: cho-k1.

A further data set concerns the target Cytochrome P450 2D6 (Homo sapiens, UniProt P10635). Further: in other assays of this panel Not Active means under 50% inhibition at 10 µM.

Cytochrome P450 3A4, sequence (P08684 whole entry): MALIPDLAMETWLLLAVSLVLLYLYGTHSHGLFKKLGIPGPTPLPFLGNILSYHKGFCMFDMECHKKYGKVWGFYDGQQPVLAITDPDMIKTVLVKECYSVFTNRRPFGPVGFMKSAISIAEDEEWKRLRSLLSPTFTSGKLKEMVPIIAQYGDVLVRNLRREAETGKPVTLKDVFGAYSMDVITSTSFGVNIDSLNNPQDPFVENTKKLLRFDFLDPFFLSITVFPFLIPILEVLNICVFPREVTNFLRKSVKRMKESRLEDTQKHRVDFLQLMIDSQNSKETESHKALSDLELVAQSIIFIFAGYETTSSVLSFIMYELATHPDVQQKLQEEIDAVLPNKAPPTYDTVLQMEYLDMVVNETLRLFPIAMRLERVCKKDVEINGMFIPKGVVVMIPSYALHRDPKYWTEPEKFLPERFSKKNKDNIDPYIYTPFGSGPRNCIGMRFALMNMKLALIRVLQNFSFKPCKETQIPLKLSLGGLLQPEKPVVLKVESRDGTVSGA
Cytochrome P450 2D6, sequence (P10635 whole entry): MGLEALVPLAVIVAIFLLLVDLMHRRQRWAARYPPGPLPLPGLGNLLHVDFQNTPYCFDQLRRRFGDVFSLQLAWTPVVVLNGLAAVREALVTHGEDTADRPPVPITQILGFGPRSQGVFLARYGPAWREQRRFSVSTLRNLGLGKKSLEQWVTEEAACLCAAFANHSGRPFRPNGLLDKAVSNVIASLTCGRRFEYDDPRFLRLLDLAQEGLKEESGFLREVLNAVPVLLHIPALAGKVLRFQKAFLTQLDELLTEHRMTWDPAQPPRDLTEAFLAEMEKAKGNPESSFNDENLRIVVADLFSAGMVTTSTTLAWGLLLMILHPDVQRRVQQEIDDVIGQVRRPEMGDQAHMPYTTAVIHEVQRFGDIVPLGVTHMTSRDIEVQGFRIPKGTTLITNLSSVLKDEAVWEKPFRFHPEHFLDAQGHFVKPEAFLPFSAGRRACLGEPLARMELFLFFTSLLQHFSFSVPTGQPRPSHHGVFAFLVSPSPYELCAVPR

As for `CCN1CCC[C@H]1CNC(=O)c1cc(S(N)(=O)=O)ccc1OC` [LEVOSULPIRIDE], the 50% inhibitory concentration (IC50) result (on Cytochrome P450 3A4; in data set [1]; in data set [2]; at Androgen receptor; in data set [3]) was “Not Active” each time. Further, the Ki result (at Cytochrome P450 3A4; in data set [2]) was “Not Active” in each case.

Regarding `O=C1Nc2ccc(Cl)cc2C(c2ccccc2Cl)=NC1O` (stereo unspecified) [LORAZEPAM], the IC50 entry (against Cytochrome P450 3A4; in data set [1]; in data set [2]; at Androgen receptor; in data set [3]) was “Not Active” each time. In addition, the Ki entry (at Cytochrome P450 3A4; in data set [2]) was “Not Active” in each case.

Take `COc1c2occc2cc2ccc(=O)oc12` [METHOXSALEN]: the IC50 result (against Cytochrome P450 3A4; in data set [1]; in data set [2]; against Androgen receptor; in data set [3]) was “Not Active” in each case. Further, the Ki entry (at Cytochrome P450 3A4; in data set [2]) was “Not Active” in each case.

Turning to `Nc1cc(N2CCCCC2)nc(N)[n+]1[O-]` [MINOXIDIL], the IC50 result (against Cytochrome P450 3A4; in data set [1]; in data set [2]; against Androgen receptor; in data set [3]) was “Not Active” each time. Also, the Ki result (on Cytochrome P450 3A4; in data set [2]) was “Not Active” each time.

As for `CCCCOc1cc(CC2CNC(=O)N2)ccc1OC` (stereo unspecified) [RO-201724], the 50% inhibitory concentration (IC50) result (against Cytochrome P450 3A4; in data set [1]; in data set [2]; against Androgen receptor; in data set [3]) was “Not Active” each time. Further, the Ki result (at Cytochrome P450 3A4; in data set [2]) was “Not Active” throughout.

On to `CN(C/C=C/C#CC(C)(C)C)Cc1cccc2ccccc12` [TERBINAFINE], for which the IC50 – broadly, the concentration that gives 50% inhibition – at Cytochrome P450 2D6 is 200 nM; in data set [1], “Not Active”; in data set [2], “Not Active”; in data set [3], “Not Active”. Further, the Ki result in data set [2] was “Not Active”.

As for `Clc1ccccc1CN1CCc2sccc2C1` [TICLOPIDINE], the IC50 entry (on Cytochrome P450 3A4; in data set [1]; in data set [2]; against Androgen receptor; in data set [3]) was “Not Active” throughout. The Ki result (at Cytochrome P450 3A4; in data set [2]) was “Not Active” throughout.

In the case of `NC1CCN(c2nc3c(cc2F)c(=O)c(C(=O)O)cn3-c2ccc(F)cc2F)C1` (stereo unspecified) [TOSUFLOXACIN], the IC50 entry (against Cytochrome P450 3A4; in data set [1]; in data set [2]; against Androgen receptor; in data set [3]) was “Not Active” each time. The Ki entry (at Cytochrome P450 3A4; in data set [2]) was “Not Active” in each case.

With `CC(c1cc2ccccc2s1)N(O)C(N)=O` (stereo unspecified) [ZILEUTON], the IC50 entry (against Cytochrome P450 3A4; in data set [1]; in data set [2]; at Androgen receptor; in data set [3]) was “Not Active” throughout. In addition, the Ki result (at Cytochrome P450 3A4; in data set [2]) was “Not Active” throughout.

Consider MANGANESE CHLORIDE ANHYDROUS, for which the 50% inhibitory concentration (IC50) entry (against Cytochrome P450 3A4; in data set [1]; in data set [2]; against Androgen receptor; in data set [3]) was “Not Active” in each case. In addition, the Ki entry (at Cytochrome P450 3A4; in data set [1]; in data set [2]; at Androgen receptor; in data set [3]) was “Not Active” throughout.

As to SODIUM ORTHOVANAD, the IC50 result (on Cytochrome P450 3A4; in data set [1]; in data set [2]; against Androgen receptor; in data set [3]) was “Not Active” in each case. Also, the Ki result (on Cytochrome P450 3A4; in data set [1]; in data set [2]; at Androgen receptor; in data set [3]) was “Not Active” throughout.
